{"source": "patent US20180319810A1", "about": "“SUBSTITUTED BRIDGED UREA ANALOGS AS SIRTUIN MODULATORS” (GlaxoSmithKline Intellectual Property (No.2) Limited, priority 2014, published 2018)"}
{"molecular_target": "T1, SIRT1 (Homo sapiens, UniProt Q96EB6)", "T1 sequence (Q96EB6 1-747)": "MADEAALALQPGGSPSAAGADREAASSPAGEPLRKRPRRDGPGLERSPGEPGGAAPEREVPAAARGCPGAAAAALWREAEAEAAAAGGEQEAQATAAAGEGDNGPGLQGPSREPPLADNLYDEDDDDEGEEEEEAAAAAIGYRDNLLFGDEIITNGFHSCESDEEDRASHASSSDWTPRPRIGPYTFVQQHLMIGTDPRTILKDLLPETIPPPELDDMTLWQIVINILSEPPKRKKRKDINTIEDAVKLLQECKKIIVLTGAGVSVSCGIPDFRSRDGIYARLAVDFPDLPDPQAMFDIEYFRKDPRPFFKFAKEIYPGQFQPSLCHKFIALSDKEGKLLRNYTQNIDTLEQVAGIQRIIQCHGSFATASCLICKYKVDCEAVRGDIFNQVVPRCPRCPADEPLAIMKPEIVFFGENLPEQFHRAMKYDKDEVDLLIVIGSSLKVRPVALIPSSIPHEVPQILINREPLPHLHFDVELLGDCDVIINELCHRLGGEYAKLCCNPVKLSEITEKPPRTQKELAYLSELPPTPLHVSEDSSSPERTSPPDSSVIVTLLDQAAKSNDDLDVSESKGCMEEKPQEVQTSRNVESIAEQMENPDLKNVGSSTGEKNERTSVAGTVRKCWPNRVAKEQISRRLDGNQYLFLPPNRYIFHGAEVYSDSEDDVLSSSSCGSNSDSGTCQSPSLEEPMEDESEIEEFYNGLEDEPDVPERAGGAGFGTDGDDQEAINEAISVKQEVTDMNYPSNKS", "assay": "Trp mass spectrometry assay of SIRT1 activation", "assay_type": "biochemical", "conditions": "Trp peptide Ac-R-H-K-K(Ac)-W-NH2 0.5 μM, 120 μM βNAD+, 10 nM SIRT1, 25 min, 25° C.", "text": "Mass spectrometry based assays were used to identify modulators of SIRT1 activity. […] The peptide was labeled with the fluorophore 5TMR (excitation 540 nm/emission 580 nm) at the C-terminus. The sequence of the peptide substrate was based on p53 with several modifications. In addition, the methionine residue naturally present in the sequence was replaced with the norleucine because the methionine may be susceptible to oxidation during synthesis and purification.\nThe Trp mass spectrometry assay was conducted as follows. […] The SIRT1 protein was obtained by cloning the SirT1 gene into a T7-promoter containing vector, which was then expressed in BL21(DE3) bacterial cells and purified as described in further detail below. Test compound was added at varying concentrations to this reaction mixture and the resulting reactions were monitored. After the 25 minute incubation with SIRT1, 10 μL of 10% formic acid was added to stop the reaction. The resulting reactions were sealed and frozen for later mass spec analysis. The relative SIRT1 activity was then determined by measuring the amount of O-acetyl-ADP-ribose (OAADPR) formed (or, alternatively, the amount of deacetylated Trp peptide generated) by the NAD-dependent sirtuin deacetylation reaction in the presence of varying concentrations of the test compound versus control reactions lacking the test compound.\nThe degree to which the test agent activated deacetylation by SIRT1 was expressed as EC1.5 (i.e., the concentration of compound required to increase SIRT1 activity by 50% over the control lacking test compound), and Percent Maximum Activation (i.e., the maximum activity relative to control (100%) obtained for the test compound).\nThis time point was the same as that used for test compounds and, within the linear range, the endpoint represents a change in velocity.\nFor the above assay, SIRT1 protein was expressed and purified as follows. The SirT1 gene was cloned into a T7-promoter containing vector and transformed into BL21(DE3). The protein was expressed by induction with 1 mM IPTG as an N-terminal His-tag fusion protein at 18° C. overnight and harvested at 30,000×g. Cells were lysed with lysozyme in lysis buffer (50 mM Tris-HCl, 2 mM Tris[2-carboxyethyl]phosphine (TCEP), 10 μM ZnCl2, 200 mM NaCl) and further treated with sonication for 10 min for complete lysis. The protein was purified over a Ni-NTA column (Amersham) and fractions containing pure protein were pooled, concentrated and run over a sizing column (Sephadex S200 26/60 global). The peak containing soluble protein was collected and run on an Ion-exchange column (MonoQ). Gradient elution (200 mM-500 mM NaCl) yielded pure protein. This protein was concentrated and dialyzed against dialysis buffer (20 mM Tris-HCl, 2 mM TCEP) overnight. The protein was aliquoted and frozen at −80° C. until further use.\n“NT” means not tested; “ND” means not determinable."}
{"molecule": "O=C(Nc1ccnc(OC[C@@H](O)CO)n1)N1c2nc(-c3cccc(C(F)(F)F)c3)ncc2N2CC[C@H]1C2", "note": "[Example 17, (8S)—N-(2-((S)-2,3-dihydroxypropoxy)pyrimidin-4-yl)-2-(3-(trifluoromethyl)phenyl)-7,8-dihydro-5,8-methanopyrimido[4,5-b][1,4]diazepine-9(6H)-carboxamide]", "TRP Activity (EC1.5, concentration of compound required to increase SIRT1 activity by 50% over control)": "B (EC1.5 1-25 μM)", "TRP MAX RESP (percent maximum fold activation relative to control)": "A (Fold activation ≥150%)"}
{"molecule": "O=C(Nc1cnc(OC[C@H](O)CO)cn1)N1c2nc(-c3cccc(C(F)(F)F)c3)ncc2N2CC[C@H]1C2", "note": "[Example 18, (8S)—N-(5-((R)-2,3-dihydroxypropoxy)pyrazin-2-yl)-2-(3-(trifluoromethyl)phenyl)-7,8-dihydro-5,8-methanopyrimido[4,5-b][1,4]diazepine-9(6H)-carboxamide]", "TRP Activity (EC1.5, concentration of compound required to increase SIRT1 activity by 50% over control)": "B (EC1.5 1-25 μM)", "TRP MAX RESP (percent maximum fold activation relative to control)": "A (Fold activation ≥150%)"}
{"molecule": "O=C(Nc1ccnc(OC2CCOCC2)n1)N1c2nc(-c3cccc(C(F)(F)F)c3)ncc2N2CC[C@H]1C2", "note": "[Example 19, (8S)—N-(2-((tetrahydro-2H-pyran-4-yl)oxy)pyrimidin-4-yl)-2-(3-(trifluoromethyl)phenyl)-7,8-dihydro-5,8-methanopyrimido[4,5-b][1,4]diazepine-9(6H)-carboxamide]", "TRP Activity (EC1.5, concentration of compound required to increase SIRT1 activity by 50% over control)": "B (EC1.5 1-25 μM)", "TRP MAX RESP (percent maximum fold activation relative to control)": "A (Fold activation ≥150%)"}
{"molecule": "O=C(NC1CCC1)N1c2nc(-c3cccc(C(F)(F)F)c3)ncc2N2CC[C@H]1C2", "note": "[Example 20, (8S)—N-cyclobutyl-2-(3-(trifluoromethyl)phenyl)-7,8-dihydro-5,8-methanopyrimido[4,5-b][1,4]diazepine-9(6H)-carboxamide]", "TRP Activity (EC1.5, concentration of compound required to increase SIRT1 activity by 50% over control)": "A (EC1.5<1 μM)", "TRP MAX RESP (percent maximum fold activation relative to control)": "A (Fold activation ≥150%)"}
{"molecule": "CCNC(=O)N1c2nc(-c3cccc(C(F)(F)F)c3)ncc2N2CC[C@H]1C2.Cl", "note": "[Example 21, (8S)—N-ethyl-2-(3-(trifluoromethyl)phenyl)-7,8-dihydro-5,8-methano pyrimido[4,5-b][1,4]diazepine-9(6H)-carboxamide, Hydrochloride]", "TRP Activity (EC1.5, concentration of compound required to increase SIRT1 activity by 50% over control)": "A (EC1.5<1 μM)", "TRP MAX RESP (percent maximum fold activation relative to control)": "A (Fold activation ≥150%)"}
{"molecule": "O=C(Nc1cccc(OC[C@H](O)CO)n1)N1c2nc(-c3cccc(C(F)(F)F)c3)ncc2N2CC[C@H]1C2", "note": "[Example 22, (8S)—N-(6-((R)-2,3-dihydroxypropoxy)pyridin-2-yl)-2-(3-(trifluoromethyl)phenyl)-7,8-dihydro-5,8-methanopyrimido[4,5-b][1,4]diazepine-9(6H)-carboxamide]", "TRP Activity (EC1.5, concentration of compound required to increase SIRT1 activity by 50% over control)": "A (EC1.5<1 μM)", "TRP MAX RESP (percent maximum fold activation relative to control)": "A (Fold activation ≥150%)"}
{"molecule": "O=C(Nc1cnc(OC[C@@H](O)CO)cn1)N1c2nc(-c3cccc(C(F)(F)F)c3)ncc2N2CC[C@H]1C2", "note": "[Example 23, (8S)—N-(5-((S)-2,3-dihydroxypropoxy)pyrazin-2-yl)-2-(3-(trifluoromethyl)phenyl)-7,8-dihydro-5,8-methanopyrimido[4,5-b][1,4]diazepine-9(6H)-carboxamide]", "TRP Activity (EC1.5, concentration of compound required to increase SIRT1 activity by 50% over control)": "B (EC1.5 1-25 μM)", "TRP MAX RESP (percent maximum fold activation relative to control)": "A (Fold activation ≥150%)"}
{"molecule": "O=C(Nc1cncc(OC[C@@H](O)CO)c1)N1c2nc(-c3cccc(C(F)(F)F)c3)ncc2N2CC[C@H]1C2", "note": "[Example 24, (8S)—N-(5-((S)-2,3-dihydroxypropoxy)pyridin-3-yl)-2-(3-(trifluoromethyl)phenyl)-7,8-dihydro-5,8-methanopyrimido[4,5-b][1,4]diazepine-9(6H)-carboxamide]", "TRP Activity (EC1.5, concentration of compound required to increase SIRT1 activity by 50% over control)": "B (EC1.5 1-25 μM)", "TRP MAX RESP (percent maximum fold activation relative to control)": "A (Fold activation ≥150%)"}
{"molecule": "O=C(Nc1ccnc(O[C@H]2CCOC2)n1)N1c2nc(-c3cccc(C(F)(F)F)c3)ncc2N2CC[C@H]1C2", "note": "[Example 25, (8S)—N-(2-(((S)-tetrahydrofuran-3-yl)oxy)pyrimidin-4-yl)-2-(3-(trifluoro-methyl)phenyl)-7,8-dihydro-5,8-methanopyrimido[4,5-b][1,4]diazepine-9(6H)-carboxamide]", "TRP Activity (EC1.5, concentration of compound required to increase SIRT1 activity by 50% over control)": "B (EC1.5 1-25 μM)", "TRP MAX RESP (percent maximum fold activation relative to control)": "A (Fold activation ≥150%)"}
{"molecule": "O=C(Nc1nccc(OC[C@H](O)CO)n1)N1c2nc(-c3cccc(C(F)(F)F)c3)ncc2N2CC[C@H]1C2", "note": "[Example 26, (8S)—N-(4-((R)-2,3-dihydroxypropoxy)pyrimidin-2-yl)-2-(3-(trifluoromethyl)phenyl)-7,8-dihydro-5,8-methanopyrimido[4,5-b][1,4]diazepine-9(6H)-carboxamide]", "TRP Activity (EC1.5, concentration of compound required to increase SIRT1 activity by 50% over control)": "B (EC1.5 1-25 μM)", "TRP MAX RESP (percent maximum fold activation relative to control)": "A (Fold activation ≥150%)"}
{"molecule": "O=C(Nc1cc(F)cc(-c2cccnc2)c1)N1c2nc(-c3cccc(C(F)(F)F)c3)ncc2N2CC[C@H]1C2", "note": "[Example 27, (8S)—N-(3-fluoro-5-(pyridin-3-yl)phenyl)-2-(3-(trifluoromethyl)phenyl)-7,8-dihydro-5,8-methanopyrimido[4,5-b][1,4]diazepine-9(6H)-carboxamide]", "TRP Activity (EC1.5, concentration of compound required to increase SIRT1 activity by 50% over control)": "A (EC1.5<1 μM)", "TRP MAX RESP (percent maximum fold activation relative to control)": "A (Fold activation ≥150%)"}
{"molecule": "O=C(Nc1ccnc(OC[C@H](O)CO)n1)N1c2nc(-c3cccc(C(F)(F)F)c3)ncc2N2CC[C@H]1C2", "note": "[Example 28, (8S)—N-(2-((R)-2,3-dihydroxypropoxy)pyrimidin-4-yl)-2-(3-(trifluoromethyl)phenyl)-7,8-dihydro-5,8-methanopyrimido[4,5-b][1,4]diazepine-9(6H)-carboxamide]", "TRP Activity (EC1.5, concentration of compound required to increase SIRT1 activity by 50% over control)": "B (EC1.5 1-25 μM)", "TRP MAX RESP (percent maximum fold activation relative to control)": "A (Fold activation ≥150%)"}
{"molecule": "O=C(Nc1cc(OC[C@@H](O)CO)ncn1)N1c2nc(-c3cccc(C(F)(F)F)c3)ncc2N2CC[C@H]1C2", "note": "[Example 29, (8S)—N-(6-((S)-2,3-dihydroxypropoxy)pyrimidin-4-yl)-2-(3-(trifluoromethyl)phenyl)-7,8-dihydro-5,8-methanopyrimido[4,5-b][1,4]diazepine-9(6H)-carboxamide]", "TRP Activity (EC1.5, concentration of compound required to increase SIRT1 activity by 50% over control)": "B (EC1.5 1-25 μM)", "TRP MAX RESP (percent maximum fold activation relative to control)": "A (Fold activation ≥150%)"}
{"molecule": "CC(C)NC(=O)N1c2nc(-c3cccc(C(F)(F)F)c3)ncc2N2CC[C@H]1C2", "note": "[Example 30, (8S)—N-isopropyl-2-(3-(trifluoromethyl)phenyl)-7,8-dihydro-5,8-methanopyrimido[4,5-b][1,4]diazepine-9(6H)-carboxamide]", "TRP Activity (EC1.5, concentration of compound required to increase SIRT1 activity by 50% over control)": "B (EC1.5 1-25 μM)", "TRP MAX RESP (percent maximum fold activation relative to control)": "A (Fold activation ≥150%)"}
